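Tested at 5 concentrations; 48 h exposure; 96-well plates; endpoints linearly interpolated, else capped at highest concentration. Abbreviation: GI50, concentration required for 50% inhibition of growth.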 Calls of active or inactive are those of the source. Rule as the data show it: active = GI50 up to about 1.1 µM and inactive = higher.
Experiments:
Test in all cases: NCI tumour cell line growth inhibition, 48 h
IGROV-1 = test system: IGROV-1
EKVX = test system: EKVX
UACC-257 = test system: UACC-257
NCI/ADR-RES = test system: NCI/ADR-RES
HT-29 = test system: HT-29
A498 = test system: A498
COLO 205 = test system: COLO 205
A549 = test system: A549
M14 = test system: M14
Hs-578T = test system: Hs-578T
PC-3 = test system: PC-3
Malme-3M = test system: Malme-3M
MCF7 = test system: MCF7
MDA-MB-435 = test system: MDA-MB-435
SF-268 = test system: SF-268
SW-620 = test system: SW-620
SK-MEL-5 = test system: SK-MEL-5
SK-MEL-2 = test system: SK-MEL-2
CAKI-1 = test system: CAKI-1
DU-145 = test system: DU-145
RXF 393 = test system: RXF 393
CCRF-CEM = test system: CCRF-CEM
U-251 = test system: U-251
UACC-62 = test system: UACC-62
NCI-H23 = test system: NCI-H23
SK-OV-3 = test system: SK-OV-3
NCI-H226 = test system: NCI-H226
SF-295 = test system: SF-295
TK-10 = test system: TK-10
MDA-MB-231 = test system: MDA-MB-231
LOX IMVI = test system: LOX IMVI
OVCAR-4 = test system: OVCAR-4
MOLT-4 = test system: MOLT-4
BT-549 = test system: BT-549
T47D = test system: T47D
ACHN = test system: ACHN
OVCAR-3 = test system: OVCAR-3
SN12C = test system: SN12C
HOP-62 = test system: HOP-62
HCC 2998 = test system: HCC 2998
RPMI-8226 = test system: RPMI-8226
NCI-H522 = test system: NCI-H522
SNB-19 = test system: SNB-19
HOP-92 = test system: HOP-92
SK-MEL-28 = test system: SK-MEL-28
SF-539 = test system: SF-539
OVCAR-5 = test system: OVCAR-5
OVCAR-8 = test system: OVCAR-8
HCT-15 = test system: HCT-15
UO-31 = test system: UO-31
K562 = test system: K562
NCI-H460 = test system: NCI-H460
KM12 = test system: KM12
MDA-N = test system: MDA-N
786-0 = test system: 786-0
HCT-116 = test system: HCT-116
SNB-75 = test system: SNB-75

Nc1ncnc2c1sc1nc3ccccc3n12
GI50 (IGROV-1): 13.4 µM (inactive)
GI50 (EKVX): 35.1 µM (inactive)
GI50 (UACC-257): > 100 µM (inactive)
GI50 (NCI/ADR-RES): > 83 µM (inactive)
GI50 (HT-29): > 70.8 µM (inactive)
GI50 (A498): > 61.7 µM (inactive)
GI50 (COLO 205): > 100 µM (inactive)
GI50 (A549): > 49.1 µM (inactive)
GI50 (M14): > 84.1 µM (inactive)
GI50 (Hs-578T): 12.2 µM (inactive)
GI50 (PC-3): > 100 µM (inactive)
GI50 (Malme-3M): > 71.3 µM (inactive)
GI50 (MCF7): 23 µM (inactive)
GI50 (MDA-MB-435): > 100 µM (inactive)
GI50 (SF-268): 19.4 µM (inactive)
GI50 (SW-620): > 100 µM (inactive)
GI50 (SK-MEL-5): 52 µM (inactive)
GI50 (SK-MEL-2): > 100 µM (inactive)
GI50 (CAKI-1): 33.7 µM (inactive)
GI50 (DU-145): > 100 µM (inactive)
GI50 (RXF 393): 12.8 µM (inactive)
GI50 (CCRF-CEM): 19.8 µM (inactive)
GI50 (U-251): 53.1 µM (inactive)
GI50 (UACC-62): 31 µM (inactive)
GI50 (NCI-H23): > 100 µM (inactive)
GI50 (SK-OV-3): 12.5 µM (inactive)
GI50 (NCI-H226): 51.1 µM (inactive)
GI50 (SF-295): > 56.2 µM (inactive)
GI50 (TK-10): > 100 µM (inactive)
GI50 (MDA-MB-231): 44.8 µM (inactive)
GI50 (LOX IMVI): 4.13 µM (inactive)
GI50 (OVCAR-4): > 100 µM (inactive)
GI50 (MOLT-4): 11.8 µM (inactive)
GI50 (BT-549): 80 µM (inactive)
GI50 (T47D): > 100 µM (inactive)
GI50 (ACHN): 57.7 µM (inactive)
GI50 (OVCAR-3): > 100 µM (inactive)
GI50 (SN12C): > 100 µM (inactive)
GI50 (HOP-62): > 70.1 µM (inactive)
GI50 (HCC 2998): > 44.8 µM (inactive)
GI50 (RPMI-8226): > 91.4 µM (inactive)
GI50 (NCI-H522): > 43.2 µM (inactive)
GI50 (SNB-19): > 100 µM (inactive)
GI50 (HOP-92): > 100 µM (inactive)
GI50 (SK-MEL-28): > 100 µM (inactive)
GI50 (SF-539): 20.4 µM (inactive)
GI50 (OVCAR-5): > 93.3 µM (inactive)
GI50 (OVCAR-8): 60.8 µM (inactive)
GI50 (HCT-15): > 100 µM
GI50 (UO-31): > 77.8 µM (inactive)
GI50 (K562): > 100 µM (inactive)
GI50 (NCI-H460): 53.1 µM (inactive)
GI50 (KM12): > 45 µM (inactive)

Cc1n[n+](Cc2ccccc2)c2sc(N)nn12
GI50 (IGROV-1): > 100 µM (inactive)
GI50 (EKVX): > 100 µM (inactive)
GI50 (UACC-257): > 100 µM (inactive)
GI50 (NCI/ADR-RES): > 100 µM (inactive)
GI50 (HT-29): 59 µM (inactive)
GI50 (A498): > 100 µM (inactive)
GI50 (COLO 205): > 100 µM (inactive)
GI50 (A549): > 100 µM (inactive)
GI50 (M14): > 100 µM (inactive)
GI50 (Hs-578T): > 100 µM (inactive)
GI50 (PC-3): > 100 µM (inactive)
GI50 (Malme-3M): > 100 µM (inactive)
GI50 (MCF7): > 100 µM (inactive)
GI50 (MDA-N): > 100 µM (inactive)
GI50 (MDA-MB-435): > 100 µM (inactive)
GI50 (SF-268): 35.3 µM (inactive)
GI50 (SW-620): 64.6 µM (inactive)
GI50 (786-0): > 100 µM (inactive)
GI50 (SK-MEL-5): 39.4 µM (inactive)
GI50 (SK-MEL-2): > 100 µM (inactive)
GI50 (CAKI-1): > 100 µM (inactive)
GI50 (DU-145): > 100 µM (inactive)
GI50 (RXF 393): > 100 µM (inactive)
GI50 (CCRF-CEM): 32 µM (inactive)
GI50 (U-251): > 100 µM (inactive)
GI50 (HCT-116): 76.4 µM (inactive)
GI50 (UACC-62): 10.2 µM (inactive)
GI50 (NCI-H23): > 100 µM (inactive)
GI50 (SK-OV-3): 85.9 µM (inactive)
GI50 (NCI-H226): 74 µM (inactive)
GI50 (SF-295): > 100 µM (inactive)
GI50 (TK-10): > 100 µM (inactive)
GI50 (LOX IMVI): > 100 µM (inactive)
GI50 (OVCAR-4): > 100 µM (inactive)
GI50 (MOLT-4): 58.9 µM (inactive)
GI50 (SNB-75): > 100 µM (inactive)
GI50 (BT-549): 38.4 µM (inactive)
GI50 (T47D): > 100 µM (inactive)
GI50 (ACHN): > 100 µM (inactive)
GI50 (OVCAR-3): > 100 µM (inactive)
GI50 (SN12C): > 100 µM (inactive)
GI50 (HOP-62): > 100 µM (inactive)
GI50 (RPMI-8226): > 100 µM (inactive)
GI50 (NCI-H522): 30 µM (inactive)
GI50 (SNB-19): > 100 µM (inactive)
GI50 (SK-MEL-28): > 100 µM (inactive)
GI50 (SF-539): > 100 µM (inactive)
GI50 (OVCAR-5): > 100 µM (inactive)
GI50 (OVCAR-8): > 100 µM (inactive)
GI50 (HCT-15): > 100 µM
GI50 (UO-31): > 100 µM (inactive)
GI50 (K562): 76.7 µM (inactive)
GI50 (NCI-H460): > 10 µM (inactive)
GI50 (KM12): > 100 µM (inactive)

— ChEMBL document CHEMBL1201862, “PubChem BioAssay data set” (2004)
